For four compounds, cervical ripening action results are on record in patent EP0970697A1, “CERVICAL MATURING AGENT” (TORAY INDUSTRIES, INC., priority 1997, dated 1999).

SMILES strings stand for the structures. Like-named read-outs stand apart in the source and are kept apart here.

In experiment [1] the test system is cervical canal. Conditions: mice; high dosage of 100 µg to 200 µg (about 2 to 4 mg per kg of weight) required; cited from earlier work.
Experiment [2] relates to cervical canal. Description: Cervical ripening action (maximum tension and slope in extension of the extracted cervical canal after intravaginal administration). The experiment is classed as in vivo, Hartley mature guinea pigs. Conditions: 10µg, intravaginal administration three times, cervical canal extracted 4 hours after final administration; maximum tension and slope compared with the base administration group, Dunnett's method. As for the experimental part:
The cervical ripening actions of compounds of formula (I) were examined by using Hartley mature guinea pigs (nine-week-old, clean animals).
In order to compare with these compounds, the action of BPS was also tested. Experiment was carried out for 4 to 14 samples per group.
In the test, 100 µl of a test medicine or a base thereof was administered to the vagina at 9 o'clock and 17 o'clock, and 9 o'clock on the next day, and a guinea pig was dissected to extract the cervical canal 4 hours after the final administration. Then, the cervical canal was extended at a rate of 2 mm/min to measure tension generated in the tissue with time. As an index for cervical ripening, the maximum tension generated up to breakage of the tissue, and the slope obtained by dividing the maximum tension by the distance of extension were examined. It is thought that decreases in these values indicate ripening of the cervical canal. A test medicine was dissolved in phosphate buffered saline, and then mixed with 3% hydroxypropyl cellulose.
Figs. 1 and 2 show changes in the maximum tension and the slope, respectively, caused by the test medicines. (*: P < 0.05, **: P < 0.01, Dunnett's method, comparison with the base administration group).

With `CC#CCC(C)[C@H](O)/C=C/[C@@H]1[C@H]2c3cccc(CCCC(=O)O)c3O[C@H]2C[C@H]1O` (mixture of isomers) [BPS, beraprost sodium, reference compound], the cervical ripening action result with cervical canal [1] is listed as “exhibits a cervical ripening action”; with cervical canal [2], “no cervical ripening action”.

On to `O=C(O)COc1cccc2c1OC1CC(O)C(C=CC(O)C3CCCC3)C21` (centres unmarked) [Compound-1], for which the cervical ripening action entry in the experiment on cervical canal [2] is “significant cervical ripening action”. On the same count and under the same terms, to `O=C(O)COc1cccc2c1OC1CC(O)C(C=CC(O)C3CCCCC3)C21` (centres unmarked) [Compound-2] belongs “significant cervical ripening action”; to `O=C(O)CCc1cccc2c1O[C@H]1C[C@@H](O)[C@H](/C=C/[C@@H](O)CC3CCCCC3)[C@@H]21` [Compound-3], “significant cervical ripening action”.
